Values after ≈ are worked out from the molar mass of the structure shown. Like-named read-outs stand apart in the source and are kept apart here. Marks after values point to notes of the source that are not given here.
What was measured:
[1] = Beagle, in vivo, po; for Dog F % (suspension): pH 2
physchem = conditions: 25 °C, thermodynamic from solid
[2] = fasted state simulated intestinal fluid (FaSSIF), fassif
[3] = fed state simulated intestinal fluid (FeSSIF), fessif
[4] = 0.1N HCL, 1.0% DMSO, 24-hour incubation at ambient temperature, maximum theoretical compound concentration 100 μM
[5] = 1×PBS buffer (pH 7.4), 1.0% DMSO, 24-hour incubation at ambient temperature, maximum theoretical compound concentration 100 μM

Q: Which “Dog F % (solution)” value [1] does the source give for `CC(C)(C#Cc1ccc(-c2ccc(Cl)c3c(N(C(=O)CCCNC(=O)OCOP(=O)(O)O)S(C)(=O)=O)nn(CC(F)(F)F)c23)c([C@H](Cc2cc(F)cc(F)c2)NC(=O)Cn2nc(C(F)(F)F)c3c2C(F)(F)[C@@H]2C[C@H]32)n1)S(C)(=O)=O` [Compound 33, (phosphonooxy)methyl (4-(N-(4-chloro-7-(2-((S)-1-(2-((3bS,4aR)-5,5-difluoro-3-(trifluoromethyl)-3b,4,4a,5-tetrahydro-111-cyclopropa[3,4]cyclopenta[1,2-c]pyrazol-1-yl)acetamido)-2-(3,5-difluorophenyl)ethyl)-6-(3-methyl-3-(methylsulfonyl)but-1-yn-1-yl)pyridin-3-yl)-1-(2,2,2-trifluoroethyl)-1H-indazol-3-yl)methylsulfonamido)-4-oxobutyl)carbamate] here?
A: The value was 33^b %.

Q: What about the “Dog F % (suspension)” value [1] of the same compound?
A: Its value is 17%.

Q: And the solubility (physchem; [2])?
A: The solubility was 326 µg/mL (≈ 270 µM).

Q: And the solubility (physchem; [3])?
A: Its solubility is 300 µg/mL (≈ 248 µM).

Q: And the “pH 2 solubility” value [4]?
A: Its value is 1 μM.

Q: What about the “pH 7 solubility” value [5] of the same compound?
A: The value was 75 μM.

Q: Which results are given for `Cc1cc(C(=O)O)cc(OP(=O)(O)O)c1C(C)(C)CC(=O)N(c1nn(CC(F)(F)F)c2c(-c3ccc(C#CC(C)(C)S(C)(=O)=O)nc3[C@H](Cc3cc(F)cc(F)c3)NC(=O)Cn3nc(C(F)(F)F)c4c3C(F)(F)[C@@H]3C[C@H]43)ccc(Cl)c12)S(C)(=O)=O` [Compound 49, 4-(4-(N-(4-chloro-7-(2-((S)-1-(2-((3bS,4aR)-5,5-difluoro-3-(trifluoromethyl)-3b,4,4a,5-tetrahydro-1H-cyclopropa[3,4]cyclopenta[1,2-c]pyrazol-1-yl)acetamido)-2-(3,5-difluorophenyl)ethyl)-6-(3-methyl-3-(methylsulfonyl)but-1-yn-1-yl)pyridin-3-yl)-1-(2,2,2-trifluoroethyl)-1H-indazol-3-yl)methylsulfonamido)-2-methyl-4-oxobutan-2-yl)-3-methyl-5-(phosphonooxy)benzoic acid]?
A: Dog F % (suspension) [1]: 20%; solubility (physchem; fassif): 384 µg/mL (≈ 299 µM); solubility (physchem; fessif): 390 µg/mL (≈ 304 µM); pH 2 solubility (pH 2): 3/100 μM; pH 7 solubility (pH 7.4): 3/100 μM

Q: Which “Dog F % (suspension)” value [1] does the source give for `CN(C(=O)N(c1nn(CC(F)(F)F)c2c(-c3ccc(C#CC(C)(C)S(C)(=O)=O)nc3[C@H](Cc3cc(F)cc(F)c3)NC(=O)Cn3nc(C(F)(F)F)c4c3C(F)(F)[C@@H]3C[C@H]43)ccc(Cl)c12)S(C)(=O)=O)c1ncccc1CN(CC(=O)O)C(=O)OCOP(=O)(O)O` [Compound 52, N-((2-(3-(4-chloro-7-(2-((S)-1-(2-((3bS,4aR)-5,5-difluoro-3-(trifluoromethyl)-3b,4,4a,5-tetrahydro-1H-cyclopropa[3,4]cyclopenta[1,2-c]pyrazol-1-yl)acetamido)-2-(3,5-difluorophenyl)ethyl)-6-(3-methyl-3-(methylsulfonyl)but-1-yn-1-yl)pyridin-3-yl)-1-(2,2,2-trifluoroethyl)-1H-indazol-3-yl)-1-methyl-3-(methylsulfonyl)ureido)pyridin-3-yl)methyl)-N-(((phosphonooxy)methoxy)carbonyl)glycine] here?
A: The value was 24%.

Q: What about the solubility (physchem; [2]) of the same compound?
A: The solubility was 1370 µg/mL (≈ 1020 µM).

Q: And the solubility (physchem; [3])?
A: The solubility was greater than 6260 µg/mL.

Q: What about the “pH 2 solubility” value [4] of the same compound?
A: The value was 2 μM.

Q: What about the “pH 7 solubility” value [5] of the same compound?
A: Its value is 100 μM.

From patent publication US11787825B2 (priority 2021, dated 2023)
